Reference: ChEMBL document CHEMBL1156425, “Proteasome inhibition induces glutathione synthesis and protects cells from oxidative stress: relevance to Parkinson disease” (J Biol Chem, 2007)
Activity calls are given as the source filed them. No cut-off for these calls is given here. Where a SMILES comes first, the peptide text is derived from it. The star is where a group is joined. Cbz = O=C(OCc1ccccc1)*; OtBu = CC(C)(C)O*

Legend:
PC-12 [1] = assay: Inhibition of hydrogen peroxide induced cytotoxicity in rat PC12 cells pretreated for 24 hrs assessed as elevation of intracellular glutathione level; assay type: functional, cell-based
PC-12 [2] = assay: Inhibition of 6-hydroxydopamine induced cytotoxicity in rat PC12 cells pretreated for 24 hrs assessed as elevation of intracellular glutathione level; assay type: functional, cell-based
PC-12 [3] = assay: Increase in reduced glutathione level in rat PC12 cells after 24 hrs; assay type: functional, cell-based
PC-12 [4] = assay: Inhibition of 300 uM hydrogen peroxide induced ROS production in rat PC12 cells pretreated at 1 uM for 24 hrs by MTT assay; assay type: functional, cell-based
PC-12 [5] = assay: Reversal of increase in glutathione level in rat PC12 cells at 1 uM in presence of 10 uM wortmannin after 24 hrs relative to control; assay type: functional
PC-12 [6] = assay: Inhibition of proteosome activity in rat PC12 cells at 1 uM after 24 hrs relative to control; assay type: cell-based; set-up: scale not given: the % may be the effect or the level left
PC-12 [7] = assay: Increase in reduced glutathione level in rat PC12 cells at 1 uM after 24 hrs; assay type: functional
PC-12 [8] = assay: Reversal of increase in glutathione level in rat PC12 cells at 1 uM in presence of 10 nM cycloheximide after 24 hrs relative to control; assay type: functional
PC-12 [9] = assay: Inhibition of proteosome activity in rat PC12 cells at 0.1 uM after 6 hrs relative to control; assay type: cell-based; set-up: scale not given: the % may be the effect or the level left
PC-12 [10] = assay: Reversal of cytoprotection activity in rat PC12 cells pretreated at 1 uM for 24 hrs in presence of p38 MAPK inhibitor SB-203580; assay type: functional, cell-based
PC-12 [11] = assay: Inhibition of hydrogen peroxide induced cytotoxicity in rat PC12 cells pretreated for 24 hrs by MTT assay; assay type: functional, cell-based
PC-12 [12] = assay: Reversal of increase in GLCLC subunit mRNA expression in rat PC12 cells at 1 uM after 12 hrs in presence of p38 MAPK inhibitor SB-203580; assay type: functional, cell-based
PC-12 [13] = assay: Reversal of increase in glutathione level in rat PC12 cells at 1 uM in presence of 3 uM BIM after 24 hrs relative to control; assay type: functional
PC-12 [14] = assay: Reversal of increase in glutathione level in rat PC12 cells at 1 uM in presence of 30 nM cycloheximide after 24 hrs relative to control; assay type: functional
PC-12 [15] = assay: Reversal of increase in glutathione level in rat PC12 cells at 1 uM in presence of 3 uM SB-203580 after 24 hrs relative to control; assay type: functional
PC-12 [16] = assay: Inhibition of proteosome activity in rat PC12 cells at 0.1 uM after 24 hrs relative to control; assay type: cell-based; set-up: scale not given: the % may be the effect or the level left
PC-12 [17] = assay: Increase in glutathione level in differentiated rat PC12 cells after 24 hrs; assay type: functional, cell-based
PC-12 [18] = assay: Inhibition of 150 uM 6-hydroxydopamine induced ROS production in rat PC12 cells pretreated for 24 hrs by MTT assay; assay type: functional, cell-based
PC-12 [19] = assay: Inhibition of proteosome activity in rat PC12 cells at 0.3 uM after 24 hrs relative to control; assay type: cell-based; set-up: scale not given: the % may be the effect or the level left
PC-12 [20] = assay: Inhibition of proteosome activity in rat PC12 cells at 1 uM after 6 hrs relative to control; assay type: cell-based; set-up: scale not given: the % may be the effect or the level left
PC-12 [21] = assay: Reversal of increase in glutathione level in rat PC12 cells at 1 uM in presence of 30 uM SB-203580 after 24 hrs relative to control; assay type: functional
PC-12 [22] = assay: Increase in oxidized glutathione level in rat PC12 cells at 1 uM after 12 hrs; assay type: functional, cell-based
PC-12 [23] = assay: Increase in oxidized glutathione level in rat PC12 cells at 1 uM after 24 hrs; assay type: functional, cell-based
PC-12 [24] = assay: Increase in GLCLC subunit mRNA expression in rat PC12 cells at 1 uM after 12 hrs; assay type: functional, cell-based
PC-12 [25] = assay: Inhibition of 6-hydroxydopamine induced cytotoxicity in differentiated rat PC12 cells pretreated for 24 hrs by MTT assay; assay type: functional, cell-based
PC-12 [26] = assay: Reversal of increase in glutathione level in rat PC12 cells at 1 uM in presence of 10 uM SB-203580 after 24 hrs relative to control; assay type: functional
PC-12 [27] = assay: Inhibition of 200 uM hydrogen peroxide induced ROS production in rat PC12 cells pretreated for 24 hrs by MTT assay; assay type: functional, cell-based
PC-12 [28] = assay: Reversal of increase in glutathione level in rat PC12 cells at 1 uM in presence of 100 nM cycloheximide after 24 hrs relative to control; assay type: functional
PC-12 [29] = assay: Translocation of Nrf2 protein to nucleus in rat PC12 cells at 1 uM around 6 or 9 hrs; assay type: functional, cell-based
PC-12 [30] = assay: Reversal of increase in glutathione level in rat PC12 cells at 1 uM in presence of 30 uM PD-98059 after 24 hrs relative to control; assay type: functional
PC-12 [31] = assay: Reversal of increase in glutathione level in rat PC12 cells at 1 uM in presence of 10 uM SP600125 after 24 hrs relative to control; assay type: functional
PC-12 [32] = assay: Inhibition of 6-hydroxydopamine-induced cytotoxicity in rat PC12 cells pretreated for 24 hrs by MTT assay; assay type: functional, cell-based
PC-12 [33] = assay: Inhibition of proteosome activity in rat PC12 cells at 0.3 uM after 6 hrs relative to control; assay type: cell-based; set-up: scale not given: the % may be the effect or the level left
PC-12 [34] = assay: Inhibition of 300 uM 6-hydroxydopamine induced ROS production in rat PC12 cells pretreated at 1 uM for 24 hrs by MTT assay; assay type: functional, cell-based
PC-12 [35] = assay: Inhibition of 6-hydroxydopamine induced cytotoxicity in differentiated rat PC12 cells pretreated for 24 hrs by lactate dehydrogenase release assay; assay type: functional, cell-based
PC-12 [36] = assay: Cytotoxicity against rat PC12 cells after 24 hrs by MTT assay; assay type: functional, cell-based; details: PC-12, 24 h

CC(=O)N[C@@H](CS)C(=O)O was tested, and the Activity (PC-12 [1]) was “Active” and the Activity (PC-12 [2]) was “Active”.
With CC[C@H](C)[C@H](NC(=O)OCc1ccccc1)C(=O)N[C@@H](CCC(=O)OC(C)(C)C)C(=O)N[C@@H](C)C(=O)N[C@H](C=O)CC(C)C (Cbz-IE(OtBu)AL-aldehyde) the Activity (PC-12 [3]) was “Active”.
For CC(C)C[C@@H](C=O)NC(=O)[C@H](CC(C)C)NC(=O)[C@H](CC(C)C)NC(=O)OCc1ccccc1 (Cbz-Leu-Leu-Leu-aldehyde), the Activity (PC-12 [3]) was “Active”.
CC(=O)N[C@@H](CSC(=O)[C@]1([C@@H](O)C(C)C)NC(=O)[C@H](C)[C@@H]1O)C(=O)O [LACTACYSTIN] was tested, and the Activity (PC-12 [4]) was “Active”, the Activity (PC-12 [5]) was 248.7 nmol/mg and the Activity (PC-12 [6]) was 77.2%. The Activity (PC-12 [7]) was 320.5 nmol/mg, the Activity (PC-12 [8]) was 216.8 nmol/mg and the Activity (PC-12 [9]) was 98%. The Activity (PC-12 [10]) was “Active”, the Activity (PC-12 [11]) was “Dose-dependent effect” and the Activity (PC-12 [12]) was “Active”. The Activity (PC-12 [13]) was 354 nmol/mg, the Activity (PC-12 [14]) was 150 nmol/mg and the Activity (PC-12 [15]) was 220 nmol/mg. The Activity (PC-12 [3]) was “Dose-dependent effect”, the Activity (PC-12 [16]) was 94.3% and the Activity (PC-12 [17]) was “Dose-dependent effect”. The Activity (PC-12 [18]) was “Active”, the Activity (PC-12 [19]) was 84.9% and the Activity (PC-12 [20]) was 49.7%. The Activity (PC-12 [21]) was 133.5 nmol/mg, the Activity (PC-12 [22]) was “inactive” and the Activity (PC-12 [23]) was “Active”. For the same compound, the Activity (PC-12 [24]) was “Active”, the Activity (PC-12 [25]) was “Dose-dependent effect” and the Activity (PC-12 [26]) was 190.5 nmol/mg. The Activity (PC-12 [27]) was “Active”, the Activity (PC-12 [28]) was 98.3 nmol/mg and the Activity (PC-12 [29]) was “Active”. For the same compound, the Activity (PC-12 [30]) was 234 nmol/mg, the Activity (PC-12 [31]) was 341.4 nmol/mg and the Activity (PC-12 [32]) was “Dose-dependent effect”. For the same compound, the Activity (PC-12 [33]) was 70.3%, the Activity (PC-12 [34]) was “Active” and the Activity (PC-12 [35]) was “Active”.
In the case of NCCc1cc(O)c(O)cc1O [OXIDOPAMINE], the EC50 (PC-12 [36]) is reported as 106 µM.
